# Laboratory results as given in patent publication US9221796B2, “Selective NR2B antagonists” (BRISTOL-MYERS SQUIBB COMPANY, priority 2014, dated 2015).
# Target: NR2B-subtype NMDA receptors (Rattus norvegicus (Rat), UniProt P35439+Q00960)
# Experiment: Radioligand binding assay (3H Ro 25-6981 competition, forebrain membranes)
# Details: 3H Ro 25-6981 (4 nM), read-out: NR2B Binding Ki
# Description: Radioligand Binding Assay. […] Buchy D; Klingelschmidt A; Messer J; Bleuel Z; Kemp J A; Richards J G. […] Thawed brains were homogenized using a Dounce homogenizer and centrifuged at 48000×g for 20 min. The pellet was resuspended in cold buffer and homogenized again using a Dounce homogenizer. […] After incubation for 1 hr at room temperature, the membrane bound radioligand was harvested on to GF/B filter plates (treated with 0.5% PEI for 1 hr at room temperature). The filter plates were dried at 50° C. for 20 mins, incubated with microscint 20 for 10 minutes and finally, the counts were read on TopCount (Perkin Elmer). […] CPM values were converted to % inhibition and the concentration response curves were plotted using custom made software. Each experiment was repeated at least twice to obtain the final binding Ki values for experimental compounds.
# Chain of NR2B-subtype NMDA receptors (Q00960 27-1482, other chains not shown): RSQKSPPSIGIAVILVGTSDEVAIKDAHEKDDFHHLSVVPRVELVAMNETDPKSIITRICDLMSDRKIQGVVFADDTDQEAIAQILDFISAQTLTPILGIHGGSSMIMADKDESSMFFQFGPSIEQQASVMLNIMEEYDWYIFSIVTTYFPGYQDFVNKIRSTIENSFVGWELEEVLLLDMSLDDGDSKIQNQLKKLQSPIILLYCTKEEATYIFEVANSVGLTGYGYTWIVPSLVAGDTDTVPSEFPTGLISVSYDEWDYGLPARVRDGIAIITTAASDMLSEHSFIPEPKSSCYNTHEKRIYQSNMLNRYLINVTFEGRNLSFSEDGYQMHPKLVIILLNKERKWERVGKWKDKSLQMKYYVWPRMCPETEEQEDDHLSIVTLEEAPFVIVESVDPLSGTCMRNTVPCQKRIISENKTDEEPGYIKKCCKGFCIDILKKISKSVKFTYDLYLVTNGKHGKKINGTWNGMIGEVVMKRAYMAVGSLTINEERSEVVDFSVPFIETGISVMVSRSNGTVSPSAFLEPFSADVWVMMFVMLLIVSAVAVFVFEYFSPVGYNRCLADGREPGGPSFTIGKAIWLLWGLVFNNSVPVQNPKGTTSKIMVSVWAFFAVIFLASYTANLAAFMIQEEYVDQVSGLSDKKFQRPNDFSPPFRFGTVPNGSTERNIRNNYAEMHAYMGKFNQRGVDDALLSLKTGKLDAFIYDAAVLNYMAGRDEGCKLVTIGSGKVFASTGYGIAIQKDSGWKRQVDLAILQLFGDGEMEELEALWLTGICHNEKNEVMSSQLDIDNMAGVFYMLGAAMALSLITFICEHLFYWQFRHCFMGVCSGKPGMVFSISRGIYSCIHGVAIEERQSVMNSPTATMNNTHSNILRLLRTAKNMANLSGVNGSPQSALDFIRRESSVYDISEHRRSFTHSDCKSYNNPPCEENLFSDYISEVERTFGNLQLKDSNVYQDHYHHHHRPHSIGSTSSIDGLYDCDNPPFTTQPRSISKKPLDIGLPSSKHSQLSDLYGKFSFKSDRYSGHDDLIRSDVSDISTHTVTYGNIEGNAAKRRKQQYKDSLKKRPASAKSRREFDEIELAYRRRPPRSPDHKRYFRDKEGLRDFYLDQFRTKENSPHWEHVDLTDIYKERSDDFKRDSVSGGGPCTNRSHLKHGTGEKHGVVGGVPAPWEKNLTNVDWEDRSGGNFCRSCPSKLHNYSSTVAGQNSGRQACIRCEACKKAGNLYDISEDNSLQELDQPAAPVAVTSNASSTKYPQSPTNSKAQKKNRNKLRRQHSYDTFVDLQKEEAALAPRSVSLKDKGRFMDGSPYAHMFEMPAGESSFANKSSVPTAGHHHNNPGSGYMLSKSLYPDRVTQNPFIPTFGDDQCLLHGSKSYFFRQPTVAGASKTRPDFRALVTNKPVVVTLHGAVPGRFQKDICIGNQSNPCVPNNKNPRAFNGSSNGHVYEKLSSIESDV
row,SMILES,Ki
1,"O=C1[C@H](N2CC[C@H](c3ccc(O)cc3)[C@@H](F)C2)CCN1Cc1ccccc1 [Example 75, (R)-1-Benzyl-3-((3R,4R)-3-fluoro-4-(4-hydroxyphenyl)-piperidin-1-yl)pyrrolidin-2-one]",8 nM
2,"O=C1C(N2CC(c3ccc(O)cc3)C2)CCN1Cc1ccc(F)c(F)c1 (stereo not shown) [Example 10, 1-(3,4-Difluorobenzyl)-3-(3-(4-hydroxyphenyl)azetidin-1-yl)pyrrolidin-2-one]",1020 nM
3,"O=C1[C@H](N2CC[C@@H](c3ccc(O)cc3)[C@H](F)C2)CCN1Cc1ccc(F)cc1 [Example 48, P-3]",11 nM
4,"O=C1[C@H](N2CC[C@@H](c3ccc(O)c(F)c3)[C@H](F)C2)CCN1Cc1ccc(Cl)cc1 [Example 116, (R)-1-(4-chlorobenzyl)-3-((3S,4S)-3-fluoro-4-(3-fluoro-4-hydroxyphenyl)piperidin-1-yl)pyrrolidin-2-one]",2 nM
5,"O=C1C(N2CCC(c3ccc(O)cc3)C(F)(F)C2)CCN1Cc1ccc(F)c(Cl)c1 (stereo not shown) [Example 100, 1-(3-Chloro-4-fluorobenzyl)-3-(3,3-difluoro-4-(4-hydroxyphenyl)piperidin-1-yl)pyrrolidin-2-one]",570 nM
6,"Cc1ccc(CN2CCC(N3CC(c4ccc(O)cc4)C3)C2=O)cc1F (stereo not shown) [Example 20, 1-(3-Fluoro-4-methylbenzyl)-3-(3-(4-hydroxyphenyl)azetidin-1-yl)pyrrolidin-2-one]",43 nM
7,"O=C1[C@@H](N2CC[C@H](c3ccc(O)cc3)[C@@H](F)C2)CCN1Cc1ccc(Cl)c(F)c1 [Example 82, (S)-1-(4-Chloro-3-fluorobenzyl)-3-((3R,4R)-3-fluoro-4-(4-hydroxyphenyl)piperidin-1-yl)pyrrolidin-2-one]",860 nM
8,"O=C1[C@@H](N2CC[C@@H](c3ccc(O)cc3)[C@H](F)C2)CCN1Cc1ccc(Cl)c(F)c1 [Example 66, (S)-1-(4-Chloro-3-fluorobenzyl)-3-((3S,4S)-3-fluoro-4-(4-hydroxyphenyl)piperidin-1-yl)pyrrolidin-2-one]",1500 nM
9,"Cc1ccc(CN2CC[C@@H](N3CC(c4ccc(O)cc4)C3)C2=O)cc1 [Example 28b, (R)-3-(3-(4-Hydroxyphenyl)azetidin-1-yl)-1-(4-methylbenzyl)-pyrrolidin-2-one]",10 nM
10,"O=C1[C@@H](N2CC[C@@H](c3ccc(O)cc3)[C@H](F)C2)CCN1c1ccc(OC(F)F)c(Cl)c1 [Example 62, (S)-1-(3-Chloro-4-(difluoromethoxy)phenyl)-3-((3S,4S)-3-fluoro-4-(4-hydroxyphenyl)-piperidin-1-yl)pyrrolidin-2-one]",6.7 nM
11,"O=C1C(N2CCC(c3ccc(O)cc3)CC2)CCN1Cc1ccc(OC(F)F)cc1 (stereo not shown) [Example 7, 1-(4-(Difluoromethoxy)benzyl)-3-(4-(4-hydroxyphenyl)piperidin-1-yl)pyrrolidin-2-one]",37 nM
12,"Cc1ccc(CN2CCCC(N3CCC(c4ccc(O)cc4)CC3)C2=O)cc1 (stereo not shown) [Example 38, 4-(4-Hydroxyphenyl)-1′-(4-methylbenzyl)-[1,3′-bipiperidin]-2′-one]",150 nM
13,"Cc1ccc(CN2CC[C@H](N3CC[C@H](c4ccc(O)c(F)c4)[C@@H](F)C3)C2=O)cc1F [Example 45, P-3, (S)-3-((3R,4R)-3-Fluoro-4-(3-fluoro-4-hydroxyphenyl)piperidin-1-yl)-1-(3-fluoro-4-methylbenzyl)pyrrolidin-2-one]",380 nM
14,"O=C1[C@H](N2CCC(c3ccc(O)cc3)CC2)CCN1Cc1ccc(F)c(F)c1 [Example 6b, (R)-1-(3,4-Difluorobenzyl)-3-(4-(4-hydroxyphenyl)piperidin-1-yl)pyrrolidin-2-one]",4.7 nM
15,"Cc1ccccc1CN1CCC(N2CC[C@@H](c3ccc(O)cc3)[C@H](F)C2)C1=O (stereo partly drawn) [Example 59, 3-((3S,4S)-3-Fluoro-4-(4-hydroxyphenyl)piperidin-1-yl)-1-(2-methylbenzyl)pyrrolidin-2-one]",81 nM
16,"O=C1C(N2CCC(c3ccc(O)cc3)C(O)C2)CCN1Cc1ccc(F)cc1 (single isomer, unassigned) [Example 9b, 1-(4-Fluorobenzyl)-3-(3-hydroxy-4-(4-hydroxyphenyl)-piperidin-1-yl)pyrrolidin-2-one]",1400 nM
17,"O=C1C(N2CC[C@@H](c3ccc(O)cc3)[C@H](F)C2)CCN1Cc1ccc(F)c(Cl)c1 (stereo partly drawn) [Example 73, 1-(3-Chloro-4-fluorobenzyl)-3-((3S,4S)-3-fluoro-4-(4-hydroxyphenyl)piperidin-1-yl)pyrrolidin-2-one]",330 nM
18,"O=C1C(N2CC[C@@H](c3ccc(O)cc3)[C@H](F)C2)CCN1Cc1ccc(F)c(F)c1 (stereo partly drawn) [Example 69, 1-(3,4-Difluorobenzyl)-3-((3S,4S)-3-fluoro-4-(4-hydroxyphenyl)piperidin-1-yl)pyrrolidin-2-one]",34 nM
19,"O=C1C(N2CCC(c3ccc(O)cc3)C(F)(F)C2)CCN1Cc1ccc(F)c(F)c1 (stereo not shown) [Example 97, 3-(3,3-Difluoro-4-(4-hydroxyphenyl)piperidin-1-yl)-1-(3,4-difluorobenzyl)pyrrolidin-2-one]",45 nM

row,SMILES,Ki
1,"Cc1cccc(CN2CCC(N3CCC(c4ccc(O)cc4)C(F)(F)C3)C2=O)c1 (stereo not shown) [Example 104, 3-(3,3-Difluoro-4-(4-hydroxyphenyl)piperidin-1-yl)-1-(3-methylbenzyl)pyrrolidin-2-one]",130 nM
2,"Cc1ccccc1CN1CCC(N2CCC(c3ccc(O)cc3)C(F)(F)C2)C1=O (stereo not shown) [Example 92, 3-(3,3-Difluoro-4-(4-hydroxyphenyl)piperidin-1-yl)-1-(2-methylbenzyl)pyrrolidin-2-one]",59 nM
3,"Cc1ccc(CN2CC[C@@H](N3CC(c4ccc(O)cc4)C3)C2=O)cc1F [Example 21a, (R)-1-(3-Fluoro-4-methylbenzyl)-3-(3-(4-hydroxyphenyl)azetidin-1-yl)pyrrolidin-2-one]",37 nM
4,"Cc1cccc(CN2CCC(N3CC[C@H](c4ccc(O)cc4)[C@@H](F)C3)C2=O)c1 (stereo partly drawn) [Example 77, 3-((3R,4R)-3-Fluoro-4-(4-hydroxyphenyl)piperidin-1-yl)-1-(3-methylbenzyl)pyrrolidin-2-one]",27 nM
5,"O=C1C(N2CCC(c3ccc(O)cc3)C(F)(F)C2)CCN1Cc1ccc(Cl)c(Cl)c1 (stereo not shown) [Example 98, 1-(3,4-Dichlorobenzyl)-3-(3,3-difluoro-4-(4-hydroxyphenyl)piperidin-1-yl)pyrrolidin-2-one]",230 nM
6,"O=C1C(N2CCN(c3ccc(O)cc3)CC2)CCN1Cc1ccc(F)cc1 (stereo not shown) [Example 113, 1-(4-fluorobenzyl)-3-(4-(4-hydroxyphenyl)piperazin-1-yl)pyrrolidin-2-one]",33 nM
7,"C[C@@H](c1ccccc1)N1CCC(N2CC[C@H](c3ccc(O)cc3)[C@@H](F)C2)C1=O (stereo partly drawn) [Example 84, 3-((3R,4R)-3-Fluoro-4-(4-hydroxyphenyl)piperidin-1-yl)-1-((S)-1-phenylethyl)pyrrolidin-2-one]",950 nM
8,"Cc1ccc(CN2CC[C@@H](N3CC[C@H](c4ccc(O)cc4)[C@@H](F)C3)C2=O)cc1F [Example 47, P-4, (R)-3-((3R,4R)-3-fluoro-4-(4-hydroxyphenyl)piperidin-1-yl)-1-(3-fluoro-4-methylbenzyl)pyrrolidin-2-one]",3.4 nM
9,"O=C1[C@H](N2CC[C@@H](c3ccc(O)cc3)[C@H](F)C2)CCN1Cc1ccc(Cl)c(F)c1 [Example 67, (R)-1-(4-Chloro-3-fluorobenzyl)-3-((3S,4S)-3-fluoro-4-(4-hydroxyphenyl)piperidin-1-yl)pyrrolidin-2-one]",6.5 nM
10,"O=C1[C@H](N2CCC(c3ccc(O)cc3)CC2)CCN1Cc1ccc(F)cc1 [Example 2b, (R)-1-(4-Fluorobenzyl)-3-(4-(4-hydroxyphenyl)piperidin-1-yl)pyrrolidin-2-one]",1.4 nM
11,"C[C@@H](c1ccccc1)N1CC[C@H](N2CCC(c3ccc(O)cc3)CC2)C1=O [Example 33a, (S)-3-(4-(4-Hydroxyphenyl)piperidin-1-yl)-1-((S)-1-phenylethyl)pyrrolidin-2-one]",≥ 5000 nM
12,"O=C1C(N2CCC(c3ccc(O)cc3)C(F)(F)C2)CCN1Cc1ccc(C(F)(F)F)cc1 (single isomer, unassigned) [Example 53, P-2, 3-(3,3-Difluoro-4-(4-hydroxyphenyl)piperidin-1-yl)-1-(4-(trifluoromethyl)-benzyl)pyrrolidin-2-one]",5.8 nM
13,"O=C1[C@H](N2CC[C@H](c3ccc(O)cc3)[C@@H](F)C2)CCN1Cc1ccc(Cl)cc1 [Example 81, (R)-1-(4-Chlorobenzyl)-3-((3R,4R)-3-fluoro-4-(4-hydroxyphenyl)piperidin-1-yl)pyrrolidin-2-one]",3.8 nM
14,"O=C1[C@@H](N2CCC(c3ccc(O)cc3)C(F)(F)C2)CCN1Cc1ccc(F)c(F)c1 (single isomer, unassigned) [Example 108, P-1]",1200 nM
15,"O=C1[C@@H](N2CC[C@@H](c3ccc(O)cc3)[C@H](F)C2)CCN1Cc1ccc(Cl)cc1 [Example 64, (S)-1-(4-Chlorobenzyl)-3-((3S,4S)-3-fluoro-4-(4-hydroxyphenyl)piperidin-1-yl)pyrrolidin-2-one]",490 nM
16,"O=C1[C@H](N2CCC(c3ccc(O)cc3)CC2)CCN1Cc1ccc(O)cc1 [Example 25b, (R)-1-(4-Hydroxybenzyl)-3-(4-(4-hydroxyphenyl)piperidin-1-yl)pyrrolidin-2-one]",5.3 nM
17,"O=C1C(N2CCC(c3ccc(O)cc3)CC2)CCN1Cc1ccc(O)cc1 (stereo not shown) [Example 24, 1-(4-Hydroxybenzyl)-3-(4-(4-hydroxyphenyl)piperidin-1-yl)pyrrolidin-2-one]",4.7 nM
18,"O=C1[C@H](N2CCC(c3ccc(O)cc3)CC2)CCN1Cc1ccc(O)c(O)c1 [Example 43, (R)-1-(3,4-Dihydroxybenzyl)-3-(4-(4-hydroxyphenyl)piperidin-1-yl)pyrrolidin-2-one]",150 nM
